Laboratory results reported in US8101605B2, “SHIP1 modulators and methods related thereto” (Aquinox Pharmaceuticals Inc., priority 2009, dated 2012).

What was measured:
[1] = system: Akt phosphorylation in Jurkat (PTEN−/SHIP1−) cells; assay: Akt phosphorylation in IGF-1 stimulated Jurkat lymphocytes (western blot); type: cell-based; set-up: key: +: inhibits Akt phosphorylation at 10 μM; −: no effect on Akt phosphorylation at 10 μM; conditions: 10 μM; IGF-1 stimulation
Experimental: Jurkat (PTEN−/SHIP1−) or Molt-4 (PTEN−/SHIP1+) cells were starved in serum free RPMI for overnight. In a 15 mL conical tube, 2-3 million serum starved cells (1 million cells per mL) were treated with various concentrations of test compound (0.1, 1, or 10 μM final in 0.1% DMSO) for 30 min at 37° C. followed by stimulation with 100 ng/mL of IGF-1 for 1 hour at 37° C. After stimulation, cells were washed once with ice-cold DPBS and lysed with Lysis Buffer (20 mM Tris-HCl, pH 7.5, 140 mM NaCl, 1% NP-40, Complete Mini Protease Inhibitor Cocktail, 10 mM NaF, 1 mM Na3VO4, 1 mM β-glycerolphosphate) on ice for 30 min with vortexing every 10 min. Samples were then centrifuged at 13,000 rpm for 20 min, and supernatants were collected as total cell lysate samples. Protein concentration was determined using bicinchonic acid assay, and about 15 μg of total protein from each sample was loaded and separated on a 4-12% Tris-Glycine gel. After SDS-PAGE, proteins were transferred from the gel to a nitrocellulose membrane. The membrane was blocked in 5% BSA in PBS containing 0.1% Tween-20 (PBS-T) for 1 hour at room temperature before probing with primary antibodies for overnight at 4° C. The following antibodies were used: mouse anti-SHIP1 (1:500 dilution; Santa Cruz, Calif., USA), rabbit anti-phospho-Akt(Ser473) (1:1000 dilution; Cell Signaling Technologies, MA, USA), rabbit anti-Akt (1:1000; Cell Signaling Technologies, MA, USA), and rabbit anti-actin (1:2000; Cell Signaling Technologies, MA, USA). The membrane was then incubated with goat anti-rabbit or anti-mouse secondary antibodies (1:3000) for 1 hour at room temperature. Target proteins on the membrane were detected with ECL solution and exposed on a film.
Scoring in Table 3 is expressed as follows: + (inhibits Akt phosphorylation at 10 μM); − (no effect on Akt phosphorylation at 10 μM).

[2] = system: carrageenan-induced paw edema; assay: Carrageenan paw edema in mice; type: in vivo; conditions: oral, doses less than 30 mg/kg, 4 hours after carrageenan
Experimental: The activity of representative compounds on carrageenan paw edema in mice was evaluated according to the procedures disclosed by Winter et al., Proc Soc Exp Biol Med 111, 544-547, 1962, which is incorporated herein by reference in its entirety. To induce edema in the paw, test compounds were administered orally one hour before intraplantar injection of the right hind paw with carrageenan (50 μL of 1% suspension). Hind paw edema, as a measure of inflammation, was recorded using a plethysmometer (Ugo Basile, Italy) 4 hours after λ-carrageenan administration.

Compound | Akt phosphorylation, Jurkat (SHIP1−) [1] | inhibition of carrageenan-induced paw edema [2] [%]
Cc1cc(O)cc2c1[C@]1(C)CC[C@H]3C(C)(C)CCC[C@]3(C)[C@H]1CO2 [Compound No. 6, (1R,10R,11S,16S)-1,3,11,15,15-pentamethyl-8-oxatetracyclo[8.8.0.0^2,7.0^11,16]octadeca-2,4,6-trien-5-ol] | − | 24
CC1(C)CCC[C@]2(C)[C@H]3CS(=O)(=O)c4cc(O)cc(O)c4[C@]3(C)CC[C@@H]12 [Compound No. 28, (1R,10R,11S,16S)-3,5-dihydroxy-1,11,15,15-tetramethyl-8-thiatetracyclo[8.8.0.0^2,7.0^11,16]octadeca-2,4,6-triene-8,8-dione] | − | 
